Test results published in patent publication US9944607B2, “Thiohydantoin derivatives and uses thereof” (Whitehead Institute for Biomedical Research, priority 2012, dated 2018).
Where two headings read alike, the source gives them in different places.

Assays:
[1] = tested on: Candida albicans CaCi-2; experiment: Primary assay: C. albicans CaCi-2 growth inhibition (Alamar Blue); format: cell-based; conditions: for IC50: Candida albicans
[2] = tested on: NIH-3T3 mammalian fibroblasts; experiment: Counterscreen mammalian cell toxicity assay (Alamar Blue); format: cell-based, murine; conditions: for IC50: Mus musculus
How it was run: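 Quiescent NIH-3T3 fibroblasts, cultured overnight, exposed to 100 nL pinned compound for 48 h at 37° C, 5% CO2. Alamar Blue added to 1:200 final, 2-3 h further incubation; fluorescence (RFU) read as relative cell growth.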

[3] = tested on: C. glabrata (ATCC 2001); experiment: Secondary C. glabrata inhibition in glycerol media (OD600); format: cell-based, Candida glabrata; conditions: for IC50: Nakaseomyces glabratus
Description: (§1) Cell Lines. • Candida albicans CaCi-2; a drug-resistant clinical isolate was provided by the Whitehead Institute (Redding et al., Clin. Infect. Dis. 1994, 18(2):240-2). This strain was used for the primary assay. • Candida albicans CaCi-17; a strongly drug-resistant clinical isolate was provided by the Whitehead Institute (Redding et al., Clin. Infect. Dis. 1994, 18(2):240-2). This strain was used for the primary assay • Saccharyomyces cerevisiae W303-1a (ATCC 208352); a well-characterized Saccharomyces strain used for determination of glycolytic vs. respiratory metabolism, as well as in the mitochondrial disruption assay. • Candida glabrata (ATCC 2001); used for determination of glycolytic vs. respiratory metabolism. • NIH-3T3 mammalian fibroblasts (ATCC; CRL no.1658); used for mammalian toxicity assays. […]
(§2) Saccharomyces, while not a major human pathogen, is a useful lab model with well-developed genetic tools available. Candida glabrata is an increasingly prominent clinical problem for immune-compromised patients but with fewer genetic tools available with which to study it. These organisms can utilize alternative metabolic pathways to support growth and survival depending on the carbon source. By comparing the concentration-dependent inhibition of yeast growth in glycerol relative to glucose media, a quantitative assessment of a compound's ability to disrupt respiration can be determined. […].
Clear, flat bottom, black 384-well plates (Corning Catalog no. 3712BC; Lot no. 35808016); Amphotericin B (Sigma Catalog no. A2411) 15 mM stock solution in DMSO; Pen/Strep (Gibco Catalog no. 10378-016; Lot no21040170) 100× in PBS.
Synthetic defined growth medium. Complete Supplement Mixture; (Sunrise Science, Catalog No. 1001-100); Yeast Nitrogen Base without ammonium sulfate (MP Biomedicals, Catalog No. 4027-012); Glycerol (Sigma Catalog No. G-9012). • Prepare medium by dissolving 0.79 g Complete Supplement Mixture and 1.7 g Yeast Nitrogen Base in 800 mL water. • Add 20 mL of glycerol. Adjust final volume to 1000 mL. Filter sterilize.
(§3) Fungal Inoculum. Test Strains: C. glabrata (ATCC 2001) and Saccharomyces cerevisiae W303. • Inoculate 100 μL of yeast from cryopreserved stock into 250 mL shaker flask containing 20 mL growth medium. Shake at 30° C. overnight (about 16 hours). • Read OD 600 of 1 mL of fungal culture in a cuvette using a standard optical density reader (Eppendorf BioPhotometer Plus), with growth medium as a background blank. • Dilute to desired volume of fungal inoculum to produce an OD600 reading of 0.005 (S. cerevisiae) or 0.004 (C. glabrata).
(§4) Procedures • Use a Thermo Combi nL to dispense 20 μL/well of assay media into all wells. • Add 2 μL of Amphotericin B to control wells. • Pin 100 nL of test compound from compound plates into assay plates using a CyBi-Well pin tool. • Dispense 20 μL/well of culture into the assay media in all wells. • Incubate the plates in a humidified (90% humidity) Liconic incubator at 37° C. without agitation for 48 hours. • Shake plates briefly. • Read OD600 of wells on a standard plate reader as measure of relative fungal growth. Envision (Perkin Elmer) plate reader settings: Ex Photometric 600, Top read. Secondary Glucose Assay Protocol (AID 623971, 623967, 624013, 624025) Materials and Reagents

[4] = tested on: C. glabrata (ATCC 2001); experiment: Secondary C. glabrata inhibition in glucose media (OD600); format: cell-based, Candida glabrata; conditions: Nakaseomyces glabratus
Description: as §1, §2, §4
Clear, flat bottom, black 384-well plates (Corning, Catalog No. 3712BC; Lot No. 35808016); Amphotericin B (Sigma, Catalog no. A2411) 15 mM stock solution in DMSO; Pen/Strep (Gibco, Catalog No. 10378-016; Lot no21040170) 100× in PBS.
Synthetic defined growth medium. Complete Supplement Mixture; (Sunrise Science, Catalog No. 1001-100); Yeast Nitrogen Base without ammonium sulfate (MP Biomedicals, Catalog No. 4027-012); Glucose (Sigma, Catalog No. G7021). • Prepare medium by dissolving 0.79 g of Complete Supplement Mixture and 1.7 g of Yeast Nitrogen Base in 800 mL of water. • Add 20 g of glucose. Adjust final volume to 1000 mL. Filter sterilize.
as §3, with “Inoculate […] of yeast” for “Inoculate 100 μL of yeast”, “stock into a 250 mL” for “stock into 250 mL”, “20 mL of growth medium.” for “20 mL growth medium.”
as §4, with “read. 4.5.” for “read.”, “Mitochondrial Disruption” for “Glucose”, “Assay” for “Assay Protocol”, “No. 624062” for “623971, 623967, 624013, 624025) Materials”, “624068)” for “Reagents”

CCOC(=O)N1C(=O)C2(CCCCC2)N(c2cccc(C)c2)C1=S [compound 56604823]
IC50 ([1]; CACI2, Table 4, n = 3, 48 hours, tested up to 26 μM, read-out: Growth Inhibition Activity, IC50 (μM), C. albicans (n = 3) CaCi-2): 0.2 µM
IC50 ([2]; NIH3T3, read-out: Growth Inhibition Activity, IC50 (μM), 3T3 Fibroblasts (n = 1), Table 4, n = 1, 48 hours, tested up to 26 μM): 24.2 µM
IC50 ([3]; ATCC2001, Table 8, n = 3, glycerol media, 48 hours, tested up to 3 μM, read-out: Growth Inhibition Activity, IC50 (μM), C. glabrata (n = 3) On glycerol): 0.034 µM
IC50 ([4]; ATCC2001, Table 8, n = 3, glucose media, 48 hours, tested up to 3 μM, read-out: Growth Inhibition Activity, IC50 (μM), C. glabrata (n = 3) On glucose): > 3 µM

C/C=C/C1[C@H]2C[C@@H](C)CC[C@@H]2C(C)=C[C@H]1C(=O)c1c(O)c(-c2ccc(O)cc2)c[nH]c1=O (some centres unmarked) [ilicicolin H, reference compound]
IC50 ([1]; CACI2, Tables 9, 10, 12, AID 623899, read-out: C. albicans CaCi-2 growth inhibition IC50): > 3 µM
IC50 ([2]; NIH3T3, Tables 9, 10, 12, AID 602394, read-out: Murine 3T3 fibroblasts growth inhibition (fibroblast toxicity) IC50): 10 µM
IC50 ([3]; ATCC2001, figure legends and Tables 9, 10, 13, AID 623965, read-out: Growth inhibition of C. glabrata on glycerol IC50): 2.6 µM
IC50 ([4]; ATCC2001, figure legends and Tables 9, 10, 13, AID 623967, read-out: Growth inhibition of C. glabrata on glucose IC50): > 3 µM

CCOC(=O)N1C(=O)C2(CCCCC2)N(c2ccc(F)cc2)C1=S [CID 56604860, Ethyl 1-(4-fluorophenyl)-4-oxo-2-thioxo-1,3-diazaspiro[4.5]decane-3-carboxylate]
Fold Selective (Anti-target IC50/Target IC50), fibroblast toxicity vs CaCi-2 growth inhibition ([1]; Table 12): >650x
IC50 ([2]; NIH3T3, read-out: Murine 3T3 fibroblasts growth inhibition (fibroblast toxicity) IC50): > 26 µM
Toxicity against mammalian fibroblasts (in words) ([2]; at concentrations up to 26 μM): no apparent toxicity
Reduction in potency when glucose is available instead of glycerol, C. glabrata [3]: greater than 250 fold
IC50 ([3]; ATCC2001, read-out: Growth inhibition of C. glabrata on glycerol IC50): 0.011 µM
Fold Selective (Glucose IC50/Glycerol IC50), C. glabrata ([3]; Table 13): >272x
IC50 ([4]; ATCC2001, read-out: Growth inhibition of C. glabrata on glucose IC50): > 3 µM

CCOC(=O)N1C(=O)C2(CCCCC2)N(c2ccc(C)cc2)C1=S [compound 3889161]
IC50 ([1]; CACI2, 48 h, read-out: Growth Inhibition Activity, IC50 (μM), C. albicans (n = 3) CaCi-2): 0.3 µM
Growth Inhibition Activity, IC50 (μM), 3T3 Fibroblasts (n = 1) ([2]; Table 3, n = 1, 48 hours, tested up to 26 μM): Inactive
Growth Inhibition Activity, IC50 (μM), 3T3 Fibroblasts (n = 1) ([2]; Table 4, n = 1, 48 hours, tested up to 26 μM): Inactive
Growth Inhibition Activity, IC50 (μM), 3T3 Fibroblasts (n = 1) ([2]; Table 5, n = 1, 48 hours, tested up to 26 μM): Inactive
Growth Inhibition Activity, IC50 (μM), 3T3 Fibroblasts (n = 1) ([2]; Table 6, n = 1, 48 hours, tested up to 26 μM): Inactive
Growth Inhibition Activity, IC50 (μM), 3T3 Fibroblasts (n = 1) ([2]; Table 7, n = 1, 48 hours, tested up to 26 μM): Inactive
IC50 ([3]; ATCC2001, 48 h, read-out: Growth Inhibition Activity, IC50 (μM), C. glabrata (n = 3) On glycerol): 0.041 µM
IC50 ([4]; ATCC2001, 48 h, read-out: Growth Inhibition Activity, IC50 (μM), C. glabrata (n = 3) On glucose): > 3 µM
